Patent US20250381198A1 (Melt Pharmaceuticals, Inc., priority 2024, published 2025)

Legend:
[1] = test system: subjects undergoing cataract extraction with lens replacement (CELR); assay: Phase 2: subjects achieving analgesia response (NPRS < 4); assay type: in vivo, human; settings: Full Analysis Set; for Subjects achieving analgesia response (observed): Yes: NPRS < 4 at the available four intraoperative timepoints
Protocol: (§1) The number of subjects achieving analgesia response (observed) in the full analysis set was determined. Success in analgesia response was defined as NPRS<4 at the available at the available four intraoperative timepoints and a failure otherwise (e.g., any interoperative pain rescue was assumed to be a failure. Results are provided in TABLE 25. The number of subjects completing the surgery is provided in TABLE 26, and the number of subjects completing the surgery without interruption is provided in TABLE 27. For this measure, subjects completing the surgery without interruption (other than rescue medication) due to pain or anxiety were considered successes. The number of subjects requiring rescue sedative medication and those requiring analgesic medication are provided in TABLES 28 and 29, respectively. For all TABLES 25-29, p-Values between pairs of treatments were calculated and are provided.

[2] = test system: healthy adult subjects; assay: Phase 1 safety: adverse events, vital signs, laboratory values, ECG, oral cavity examination, neurocognitive assessment (SPMSQ); assay type: in vivo, human; settings: for Mean changes from baseline in systolic and diastolic blood pressures: MELT-100 3/25 mg and 6/25 mg, each timepoint
Protocol: The Investigator evaluated safety using physical and oral examinations, O2 saturation (SpO2), vital sign measurements, clinical laboratory evaluations, electrocardiograms (ECGs), reported or observed adverse events (AEs), and assessments of neurocognitive function. Subjects were monitored for any AEs from the first dose through the end of the study.
All safety analyses were performed on data from the Safety Population. All quantitative safety data were tabulated with descriptive summary statistics, including the following: arithmetic mean, SD, median, minimum value, maximum values, and number of non-missing observations (n).
Frequency counts and percentage were provided for categorical data. Data were summarized by treatment sequence, treatment, and/or overall, as applicable. All observed baseline/predose and postdose values were summarized by treatment when data were available. Additionally, the corresponding change from baseline/predose assessment to each postdose assessment were also summarized by treatment. All tabulations involving change from baseline/predose comparisons included only those subjects with data at both the baseline/predose and postdose assessments.
Adverse events were coded using the Medical Dictionary for Regulatory Activities (MedDRA, version 22.0, or later) terms and summarized by system organ class (SOC) and preferred term (PT) within SOC. The number and percentage of subjects reporting TEAEs were summarized by reported SOC and PT for each treatment and the population overall. TEAEs were also summarized by maximum severity and nearest relationship to study drug, by SOC and PT for each treatment.
A by-subject AE (including treatment-emergent) data listing, including but not limited to verbatim term, SOC, PT, severity, and relationship to study treatment, was provided. Deaths, SAEs, and other significant AEs, including those leading to early termination of study treatments were listed.
Vital signs, clinical laboratory values (hematology, serum chemistry, and urinalysis), and 12-lead ECG parameters were summarized by treatment including any abnormal values flagged.
Physical examination and oral cavity examination data at each evaluation were listed. […] Weight and height were summarized. Neurocognitive assessments for each evaluation were listed.

[3] = test system: subjects undergoing cataract extraction with lens replacement (CELR); assay: Phase 2: subjects completing the surgery (and without interruption); assay type: in vivo, human; settings: Visit 2 (Day 1); Full Analysis Set
Protocol: as §1

[4] = test system: healthy adult subjects; assay: Phase 1 pharmacodynamics: sedation by Ramsay sedation scale (RSS); assay type: in vivo, human; settings: for Subjects with RSS score of 2: 5 minutes after administration
Protocol: Pharmacodynamic parameters included sedation, defined as time to onset of sedation and sedation level, assessed using the Ramsay sedation scale (RSS), and cardiodynamics assessed by QTcF, heart rate, and PR and QRS intervals, and T-wave morphology and U-wave presence, extracted from ECGs collected via Holter monitor from predose through 24 hours postdose.
All pharmacodynamic analyses were performed on data from the Safety Population. The RSS scores were summarized by treatment and by timepoint. Time to onset of sedation was summarized by treatment and presented graphically.

[5] = Phase 1 crossover relative bioavailability study: plasma pharmacokinetics of midazolam, 1-hydroxymidazolam, ketamine and norketamine
Protocol: PK analysis was performed using noncompartmental methods in Phoenix WinNonlin® (Version 8.1, Certara, L.P.) in conjunction with the internet-accessible implementation of the Pharsight® Knowledgebase Server™ (PKSO; Version 4.0.4, Certara, L.P). PKSO provides protected and structured storage, audit trails, and version control for study data, analyses, and related files, supporting 21 CFR Part 11 compliance. The analysis was performed in accordance with the Statistical Analysis Plan (Version 1.0, 5 Jan. 2021).
During the PK analysis, concentrations below the limit of quantitation (BLQ) up to the time of the first quantifiable concentration were treated as zero. Embedded (values between 2 quantifiable concentrations) and terminal BLQ concentrations were treated as “missing”. Calculation of the PK characteristics were based on actual elapsed times [h] (relative to time of dose).
All PK analyses were performed on the data from the PK Analysis Population. […] The ANOVA model included factors for sequence, subject within sequence, treatment, and period.

[6] = test system: subjects undergoing cataract extraction with lens replacement (CELR); assay: Phase 2 MELT-300: subjects achieving procedural sedation (RSS level 2 or 3 without rescue); assay type: in vivo, human; settings: for Subjects who achieved target sedation: Full analysis set, MELT-300, 3 mg midazolam alone, 50 mg ketamine alone, sublingual; for Subjects achieving procedural sedation: No / Subjects achieving procedural sedation: Yes: Visit 2 (Day 1), Full Analysis Set, single sublingual tablet (MELT-300; midazolam 3 mg; ketamine 50 mg)
Protocol: Achievement of procedural sedation was evaluated for each subject (see TABLE 20). Success for procedural sedation for this Phase 2 study was defined as achieving target sedation level (Ramsay Sedation Scale (RSS) scale level 2 or 3) at the start of surgery without the need for rescue sedation medication, and no need for intraoperative rescue sedation medication to maintain target sedation level.

[7] = test system: subjects undergoing cataract extraction with lens replacement (CELR); assay: Phase 2: subject-rated worst pain during surgery by the numeric pain rating scale; assay type: in vivo, human; settings: Full Analysis Set; for Worst Pain During Surgery (NPRS), Mean / Worst Pain During Surgery (NPRS), Median: carry forward, MELT-300, midazolam 3 mg, ketamine 50 mg
[8] = test system: subjects undergoing cataract extraction with lens replacement (CELR); assay: Phase 2: subjects receiving opioid concomitant medication postoperatively; assay type: in vivo, human; settings: Full Analysis Set; percent of subjects
[9] = midazolam 3.5 mg IV, ketamine 18 mg IV
[10] = 5-minute postdose timepoint, ketamine 18 mg IV
[11] = Treatment D: ketamine IV 18 mg, fasted
[12] = Treatment C: midazolam IV 3.5 mg, fasted

## CNC1(c2ccccc2Cl)CCCCC1=O (centres unmarked) [Ketamine, 2-(2-chlorophenyl)-2-(methylamino)cyclohexanone]
[1]
  Subjects achieving analgesia response (observed): No: 40 (50.6) n (%)
  Subjects achieving analgesia response (observed): Yes: 39 (49.4) n (%)
[2]; [9]
  Mean changes from baseline in systolic and diastolic blood pressures: highest at the 10-minute timepoint
[2]; ketamine 18 mg IV
  Treatment-related AEs of hypertension, number: 3
[3]
  Subjects completing the surgery: No: 0 (0) n (%)
  Subjects completing the surgery: Yes: 79 (100.0) n (%)
[4]; [10]
  Subjects with RSS score of 1: 4.0%
  Subjects with RSS score of 5: 4.0%
[4]; [9]
  Subjects with RSS score of 2: 92.0%
  Highest proportion of subjects with RSS scores >2 postdose: ~8%
[5]; [11]
  Ketamine AUCExtrap, mean: 9.64%
  Ketamine Clast, mean: 1.99 ng/mL
  Ketamine Tlast, mean: 23.7 h
  Ketamine Vz, mean: 867 L
[5]; human, plasma, iv, 18 mg
  clearance: 998 mL/min
[6]
  Subjects who achieved target sedation: 63.3%
  Subjects achieving procedural sedation: No: 29 (36.7) n (%)
  Subjects achieving procedural sedation: Yes: 50 (63.3) n (%)
[7]
  Worst pain: Mean Difference versus Placebo: −0.33
  Worst Pain During Surgery (NPRS), Mean: 3.7
  Worst Pain During Surgery (NPRS), Median: 4.0
[8]
  Received Postoperative Opioid on Day 2-8: No, %: (100.0) %
  Received Postoperative Opioid on Day 2-8: Yes, %: (0.0) %
  Received Postoperative Opioid on Day 2: No, %: (100.0) %
  Received Postoperative Opioid on Day 2: Yes, %: (0.0) %

## Cc1ncc2n1-c1ccc(Cl)cc1C(c1ccccc1F)=NC2 [Midazolam, 8-chloro-6-(2-fluorophenyl)-1-methyl-4H-imidazo[1,5-a][1,4]benzodiazepine]
[1]
  Subjects achieving analgesia response (observed): No: 48 (59.3) n (%)
  Subjects achieving analgesia response (observed): Yes: 33 (40.7) n (%)
[2]; 24 hours after midazolam 3.5 mg IV in Period 4, not considered clinically significant
  PR duration (one subject): abnormal
[2]; [9]
  Mean changes from baseline in systolic and diastolic blood pressures: minimal and similar
[2]; midazolam 3.5 mg IV
  Subjects with treatment-related AEs: 8.3%
  Treatment-related AEs, number of events: 2 events
[2]; midazolam 3.5 mg IV at 10-minute postdose, MELT-100 6/50 mg at 30-minute postdose
  Mean change from baseline in pulse oximetry: small mean decrease from baseline
[3]
  Subjects completing the surgery: No: 0 (0) n (%)
  Subjects completing the surgery: Yes: 81 (100.0) n (%)
[4]; 5-minute postdose timepoint, midazolam 3.5 mg IV
  Subjects with RSS scores of 3: 8.3%
[4]; [9]
  Subjects with RSS score of 2: 91.7%
  Highest proportion of subjects with RSS scores >2 postdose: ~54%
[5]; [12]
  Midazolam AUCExtrap, mean: 5.58%
  Midazolam Clast, mean: 0.963 ng/mL
[6]
  Subjects who achieved target sedation: 64.2%
  Subjects achieving procedural sedation: No: 29 (35.8) n (%)
  Subjects achieving procedural sedation: Yes: 52 (64.2) n (%)
[7]
  Worst pain: Mean Difference versus Placebo: 0.05
  Worst Pain During Surgery (NPRS), Mean: 4.0
  Worst Pain During Surgery (NPRS), Median: 4.0
[7]; versus ketamine 50 mg
  Worst pain: Mean Difference versus Ketamine: 0.38
[8]
  Received Postoperative Opioid on Day 2-8: No, %: (100.0) %
  Received Postoperative Opioid on Day 2-8: Yes, %: (0.0) %
  Received Postoperative Opioid on Day 2: No, %: (100.0) %
  Received Postoperative Opioid on Day 2: Yes, %: (0.0) %
